Data from the NIST ThermoML archive (doi:10.1021/je060415l).

Settings: Liquid, expansion method

CO [methanol]
Settings | isothermal compressibility
263.17 K, 19270 kPa | 8.26e-07 1/kPa
263.17 K, 22000 kPa | 8.07e-07 1/kPa
263.17 K, 24860 kPa | 7.88e-07 1/kPa
263.17 K, 27740 kPa | 7.73e-07 1/kPa
263.17 K, 30600 kPa | 7.56e-07 1/kPa
263.17 K, 33550 kPa | 7.41e-07 1/kPa
263.17 K, 36560 kPa | 7.26e-07 1/kPa
263.17 K, 39590 kPa | 7.11e-07 1/kPa
263.17 K, 42670 kPa | 6.97e-07 1/kPa
263.17 K, 45790 kPa | 6.84e-07 1/kPa
263.17 K, 48960 kPa | 6.72e-07 1/kPa
263.17 K, 52170 kPa | 6.58e-07 1/kPa
263.17 K, 55430 kPa | 6.46e-07 1/kPa
263.17 K, 58830 kPa | 6.32e-07 1/kPa
263.17 K, 62280 kPa | 6.21e-07 1/kPa
263.17 K, 65720 kPa | 6.12e-07 1/kPa
263.17 K, 69340 kPa | 5.97e-07 1/kPa
263.17 K, 73030 kPa | 5.88e-07 1/kPa
263.17 K, 76640 kPa | 5.78e-07 1/kPa
263.17 K, 80310 kPa | 5.68e-07 1/kPa
263.17 K, 84120 kPa | 5.57e-07 1/kPa
263.17 K, 88070 kPa | 5.47e-07 1/kPa
263.17 K, 92050 kPa | 5.52e-07 1/kPa
263.17 K, 95980 kPa | 5.33e-07 1/kPa
263.17 K, 100060 kPa | 5.22e-07 1/kPa
273.17 K, 1010 kPa | 1.05e-06 1/kPa
273.17 K, 3000 kPa | 1.02e-06 1/kPa
273.17 K, 5050 kPa | 1e-06 1/kPa
273.17 K, 7100 kPa | 9.82e-07 1/kPa
273.17 K, 9170 kPa | 9.62e-07 1/kPa
273.17 K, 11220 kPa | 9.47e-07 1/kPa
273.17 K, 13320 kPa | 9.25e-07 1/kPa
273.17 K, 15430 kPa | 9.12e-07 1/kPa
273.17 K, 17510 kPa | 8.9e-07 1/kPa
273.17 K, 19750 kPa | 8.72e-07 1/kPa
273.17 K, 22140 kPa | 8.56e-07 1/kPa
273.17 K, 24880 kPa | 8.26e-07 1/kPa
273.17 K, 27900 kPa | 8.1e-07 1/kPa
273.17 K, 30870 kPa | 7.91e-07 1/kPa
273.17 K, 38720 kPa | 7.29e-07 1/kPa
273.17 K, 42290 kPa | 7.21e-07 1/kPa
273.17 K, 45710 kPa | 7.11e-07 1/kPa
273.17 K, 49180 kPa | 6.92e-07 1/kPa
273.17 K, 52690 kPa | 6.79e-07 1/kPa
273.17 K, 55980 kPa | 6.73e-07 1/kPa
273.17 K, 59210 kPa | 6.57e-07 1/kPa
273.17 K, 62510 kPa | 6.46e-07 1/kPa
273.17 K, 65790 kPa | 6.35e-07 1/kPa
273.17 K, 69160 kPa | 6.24e-07 1/kPa
273.17 K, 72680 kPa | 6.19e-07 1/kPa
273.17 K, 76170 kPa | 6.02e-07 1/kPa
273.17 K, 79630 kPa | 5.9e-07 1/kPa
273.17 K, 83150 kPa | 5.82e-07 1/kPa
273.17 K, 86550 kPa | 5.73e-07 1/kPa
273.17 K, 90030 kPa | 5.63e-07 1/kPa
273.17 K, 94000 kPa | 5.47e-07 1/kPa
273.17 K, 98210 kPa | 5.44e-07 1/kPa
298.16 K, 740 kPa | 1.27e-06 1/kPa
298.16 K, 2360 kPa | 1.22e-06 1/kPa
298.16 K, 4230 kPa | 1.19e-06 1/kPa
298.16 K, 6090 kPa | 1.17e-06 1/kPa
298.16 K, 7970 kPa | 1.14e-06 1/kPa
298.16 K, 9920 kPa | 1.12e-06 1/kPa
298.16 K, 11950 kPa | 1.09e-06 1/kPa
298.16 K, 14020 kPa | 1.06e-06 1/kPa
298.16 K, 16080 kPa | 1.04e-06 1/kPa
298.16 K, 18190 kPa | 1.02e-06 1/kPa
298.16 K, 20320 kPa | 1e-06 1/kPa
298.16 K, 22490 kPa | 9.82e-07 1/kPa
298.16 K, 24710 kPa | 9.59e-07 1/kPa
298.16 K, 26990 kPa | 9.37e-07 1/kPa
298.16 K, 29290 kPa | 9.23e-07 1/kPa
298.16 K, 31700 kPa | 8.99e-07 1/kPa
298.16 K, 34090 kPa | 8.85e-07 1/kPa
298.16 K, 36550 kPa | 8.65e-07 1/kPa
298.16 K, 39120 kPa | 8.47e-07 1/kPa
298.16 K, 41740 kPa | 8.3e-07 1/kPa
298.16 K, 44450 kPa | 8.14e-07 1/kPa
298.16 K, 47180 kPa | 7.96e-07 1/kPa
298.16 K, 49870 kPa | 7.83e-07 1/kPa
298.16 K, 52590 kPa | 7.68e-07 1/kPa
298.16 K, 55320 kPa | 7.57e-07 1/kPa
298.16 K, 58040 kPa | 7.43e-07 1/kPa
298.16 K, 60870 kPa | 7.28e-07 1/kPa
298.16 K, 63900 kPa | 7.14e-07 1/kPa
298.16 K, 66990 kPa | 7.03e-07 1/kPa
298.16 K, 69960 kPa | 6.89e-07 1/kPa
298.16 K, 73410 kPa | 6.65e-07 1/kPa
298.16 K, 77320 kPa | 6.55e-07 1/kPa
298.16 K, 80990 kPa | 6.49e-07 1/kPa
298.16 K, 84450 kPa | 6.37e-07 1/kPa
298.16 K, 87890 kPa | 6.41e-07 1/kPa
298.16 K, 91290 kPa | 6.17e-07 1/kPa
298.16 K, 94830 kPa | 6.05e-07 1/kPa
298.16 K, 98440 kPa | 6.02e-07 1/kPa
